The subject of one series is AMARE. The experiment in a line: greenhouse post-emergence herbicidal test. Type of series: in vivo, redroot pigweed. From the text:
(§1) The seeds of the test plants were sown separately for each species. For the post-emergence treatment, the test plants were first grown to a plant height of from 3 to 15 cm, depending on the plant habit, and only then treated with the active compounds which had been suspended or emulsified in water. To this end, the test plants were either sown directly and grown in the same containers, or they were first grown separately as seedlings and transplanted into the test containers a few days prior to treatment. The rate of application for the post-emergence treatment was 31.3, 62.5, 125 and/or 250 g of a.s. (active substance) /ha. Depending on the species, the plants were kept at from 10 to 25° C., or 20-35° C., respectively. The test period extended over 2 to 4 weeks. During this time, the plants were tended, and their response to the individual treatments was evaluated. Evaluation was carried out using a scale of from 0 to 100. 100 means no emergence of the plants, or complete destruction of at least the aerial parts, and 0 means no damage, or normal course of growth. A damage of at least 95% corresponds to very good herbicidal action. The plants used in the greenhouse experiments were of the following species: [table]

In the next series the test system is BRAPL. The experiment in a line: greenhouse post-emergence herbicidal test. Type of series: in vivo, marmelade grass.
Text: as §1

A further series relates to POLPE. Put plainly: greenhouse post-emergence herbicidal test. Type of series: in vivo, ladysthumb.
Text: as §1

The test system of another series is BIDPI. Put plainly: greenhouse post-emergence herbicidal test. It is filed as in vivo, hairy beggarticks. As to conditions: 125 or 250 g/ha (a.s.).
Text: as §1

In another series the test system is STEME. The experiment in a line: greenhouse post-emergence herbicidal test. It is filed as in vivo, chickweed. As to conditions: 31.3 or 62.5 g/ha (a.s.).
Text: as §1

For a further series, the system named is THLAR. Put plainly: greenhouse post-emergence herbicidal test. Type of series: in vivo, pennycress. The conditions noted are these: 31.3 or 62.5 g/ha (a.s.).
Text: as §1

The test system of another series is PAPRH. Put plainly: greenhouse post-emergence herbicidal test. It is filed as in vivo, cornpoppy. As to conditions: 31.3 or 62.5 g/ha (a.s.).
Text: as §1

The test system of another series is SETFA. The experiment in a line: greenhouse post-emergence herbicidal test. It is filed as in vivo, giant foxtail. The conditions noted are these: 125 or 250 g/ha (a.s.).
Text: as §1

In a further series the test system is ECHCG. Put plainly: greenhouse post-emergence herbicidal test. Type of series: in vivo, barnyardgrass. As to conditions: 125 or 250 g/ha (a.s.).
Text: as §1

For the next series, the system named is CHEAL. Put plainly: greenhouse post-emergence herbicidal test. Type of series: in vivo, lambsquarters (goosefoot). As to conditions: 125 or 250 g/ha (a.s.).
Text: as §1

The test system of a further series is PHBPU. The experiment in a line: greenhouse post-emergence herbicidal test. Type of series: in vivo, morningglory, common. The conditions noted are these: 125 or 250 g/ha (a.s.).
Text: as §1

Molecule `C=CCn1c(=O)sc2ccc(C(=O)c3cnn(C)c3O)c(C)c21` [Example 4] had a melting point of 155 to 158 °C.
Same read-out and setting: then `Cc1c(C(=O)c2cnn(C)c2O)ccc2oc(=O)n(C)c12` [Example 6], with 200 to 203 °C; and `C=CCn1c(=O)oc2ccc(C(=O)c3cnn(C)c3O)c(C)c21` [Example 7], with 127 to 129 °C; and `CCn1c(=O)oc2ccc(C(=O)c3cnn(C)c3O)c(C)c21` [Example 8], with 156 to 157 °C.
On the same count and under the same terms, the same measure for `CCCn1c(=O)sc2ccc(C(=O)c3cnn(C)c3O)c(C)c21` [Example 15]: 135 to 137 °C.
On the same count and under the same terms, then `Cc1c(C(=O)c2cnn(C)c2O)ccc2sc(=O)n(Cc3ccccc3)c12` [Example 16], with 65 to 71 °C; and `Cc1c(C(=O)c2cnn(C(C)C)c2O)ccc2sc(=O)n(Cc3ccccc3)c12` [Example 17], with 142 to 144 °C.
In turn, `Cc1nn(C)c(O)c1C(=O)c1ccc2sc(=O)n(Cc3ccccc3)c2c1C` [Example 18] yielded a melting point of 153 to 156 °C.
On the same count and under the same terms, the same measure for `CC#CCn1c(=O)sc2ccc(C(=O)c3cnn(C)c3O)c(C)c21` [Example 20]: 140 to 147 °C; for `CC#CCn1c(=O)sc2ccc(C(=O)c3cnn(C(C)C)c3O)c(C)c21` [Example 21]: 54 to 60 °C.
Still for that read-out and setting: then `Cc1c(C(=O)c2cnn(C(C)C)c2O)ccc2sc(=O)n(CC3OCCO3)c12` [Example 23], with 54 to 58 °C; and `Cc1c(C(=O)c2cnn(C(C)C)c2OCc2ccccc2)ccc2sc(=O)n(CC3OCCO3)c12` [Example 24], with 133 to 134 °C.
As to `Cc1c(C(=O)c2cnn(C)c2O)ccc2oc(=O)n(CC(C)C)c12` [Example 26], the melting point lay within 150 to 151 °C.
`CCCn1c(=O)oc2ccc(C(=O)c3cnn(C(C)C)c3O)c(C)c21` [Example 27] registered a melting point of 104 to 105 °C.
Still for that read-out and setting: the same measure for `CCCn1c(=O)sc2ccc(C(=O)c3c(C)nn(C)c3O)c(C)c21` [Example 28]: 56 to 61 °C; for `Cc1c(C(=O)c2cnn(C)c2OCc2ccccc2)ccc2sc(=O)n(Cc3ccccc3)c12` [Example 35]: 150 to 151 °C; for `CCCCCn1c(=O)sc2ccc(C(=O)c3cnn(C(C)C)c3O)c(C)c21` [Example 39]: 105 to 107 °C.
On the same count and under the same terms, the same measure for `COc1cccc(Cn2c(=O)sc3ccc(C(=O)c4cnn(C(C)C)c4O)c(C)c32)c1` [Example 44]: 71 to 74 °C; for `COc1cccc(Cn2c(=O)sc3ccc(C(=O)c4cnn(C)c4O)c(C)c32)c1` [Example 45]: 79 to 89 °C.
As to `CCCn1c(=O)oc2ccc(C(=O)c3cnn(C)c3O)c(C)c21` [Example I-1a.4], the “herbicidal action against AMARE” value in the series with AMARE (125 or 62.5 g/ha (a.s.)) is “very good herbicidal action (A damage of at least 95% corresponds to very good herbicidal action)”. Further, the “herbicidal action against BRAPL” value in the series on BRAPL (125 or 62.5 g/ha (a.s.)) is “very good herbicidal action (A damage of at least 95% corresponds to very good herbicidal action)”.
`CCCCn1c(=O)oc2ccc(C(=O)c3cnn(C)c3O)c(C)c21` [Example I-1a.6]: in the series on POLPE (125 or 250 g/ha (a.s.)), the “herbicidal action against POLPE” value was “very good herbicidal action (A damage of at least 95% corresponds to very good herbicidal action)”. Also, in the series on BIDPI, the “herbicidal action against BIDPI” value is “very good herbicidal action (A damage of at least 95% corresponds to very good herbicidal action)”.
For `Cc1c(C(=O)c2cnn(C)c2O)ccc2sc(=O)n(C)c12` [Example I-1a.1129, 3,4-dimethyl-5-(5′-hydroxy-1′-methyl-pyrazol-4-yl)carbonyl benzothiazol-2-one], the “herbicidal action against STEME” value in the series on STEME is “very good herbicidal action (A damage of at least 95% corresponds to very good herbicidal action)”. Further, the “herbicidal action against THLAR” value in the series with THLAR is listed as “very good herbicidal action (A damage of at least 95% corresponds to very good herbicidal action)”.
On to `CCn1c(=O)sc2ccc(C(=O)c3cnn(C)c3O)c(C)c21` [Example I-1a.1131], for which the “herbicidal action against AMARE” value in the series with AMARE (125 or 250 g/ha (a.s.)) is listed as “very good herbicidal action (A damage of at least 95% corresponds to very good herbicidal action)”. Further, the “herbicidal action against BRAPL” value in the series with BRAPL (125 or 250 g/ha (a.s.)) was “very good herbicidal action (A damage of at least 95% corresponds to very good herbicidal action)”.
For `CCn1ncc(C(=O)c2ccc3sc(=O)n(C)c3c2C)c1O` [Example I-1b.1129, 3,4-dimethyl-5-(5′-hydroxy-1′-ethylpyrazol-4-yl)carbonylbenzothiazol-2-one], the “herbicidal action against STEME” value in the series on STEME is “very good herbicidal action (A damage of at least 95% corresponds to very good herbicidal action)”. In addition, the “herbicidal action against THLAR” value with THLAR is recorded as “very good herbicidal action (A damage of at least 95% corresponds to very good herbicidal action)”. Also, the “herbicidal action against PARPH” value with PAPRH was “very good herbicidal action (A damage of at least 95% corresponds to very good herbicidal action)”.
As to `CCn1ncc(C(=O)c2ccc3sc(=O)n(CC)c3c2C)c1O` [Example I-1b.1131], the “herbicidal action against AMARE” value in the series on AMARE (125 or 250 g/ha (a.s.)) is given as “very good herbicidal action (A damage of at least 95% corresponds to very good herbicidal action)”. The “herbicidal action against BRAPL” value in the series with BRAPL (125 or 250 g/ha (a.s.)) is “very good herbicidal action (A damage of at least 95% corresponds to very good herbicidal action)”.
Turning to `Cc1c(C(=O)c2cnn(C(C)C)c2O)ccc2sc(=O)n(C)c12` [Example I-1c.1129, 3,4-dimethyl-5-(5′-hydroxy-1′-isopropylpyrazol-4-yl)carbonylbenzothiazol-2-one], the “herbicidal action against POLPE” value with POLPE (31.3 or 62.5 g/ha (a.s.)) is on record as “very good herbicidal action (A damage of at least 95% corresponds to very good herbicidal action)”. In the series on AMARE (31.3 or 62.5 g/ha (a.s.)), the “herbicidal action against AMARE” value is “very good herbicidal action (A damage of at least 95% corresponds to very good herbicidal action)”.
For `CCn1c(=O)sc2ccc(C(=O)c3cnn(C(C)C)c3O)c(C)c21` [Example I-1c.1131], the “herbicidal action against AMARE” value in the series with AMARE (125 or 250 g/ha (a.s.)) was “very good herbicidal action (A damage of at least 95% corresponds to very good herbicidal action)”. In addition, the “herbicidal action against BRAPL” value in the series with BRAPL (125 or 250 g/ha (a.s.)) is “very good herbicidal action (A damage of at least 95% corresponds to very good herbicidal action)”.
Consider `CCn1c(=O)sc2ccc(C(=O)c3cnn(C(C)(C)C)c3O)c(C)c21` [Example I-1d.1131], for which, in the series on AMARE (125 or 250 g/ha (a.s.)), the “herbicidal action against AMARE” value is listed as “very good herbicidal action (A damage of at least 95% corresponds to very good herbicidal action)”. In addition, the “herbicidal action against BRAPL” value with BRAPL (125 or 250 g/ha (a.s.)) is listed as “very good herbicidal action (A damage of at least 95% corresponds to very good herbicidal action)”.
As to `CCn1c(=O)sc2ccc(C(=O)c3cnn(C)c3OCc3ccccc3)c(C)c21` [Example I-1g.1131], the “herbicidal action against SETFA” value in the series with SETFA is given as “very good-herbicidal action”. Further, the “herbicidal action against ECHCG” value with ECHCG was “very good-herbicidal action”. In the series with AMARE (125 or 250 g/ha (a.s.)), the “herbicidal action against AMARE” value is listed as “very good-herbicidal action”. Further, the “herbicidal action against CHEAL” value with CHEAL was “very good-herbicidal action”. For the same molecule, the “herbicidal action against BRAPL” value in the series on BRAPL (125 or 250 g/ha (a.s.)) was “very good-herbicidal action”.
`CCn1ncc(C(=O)c2ccc3sc(=O)n(CC)c3c2C)c1OCc1ccccc1` [Example I-1h.1131]: in the series with AMARE (125 or 250 g/ha (a.s.)), the “herbicidal action against AMARE” value is recorded as “very good herbicidal action (A damage of at least 95% corresponds to very good herbicidal action)”. Besides, in the series on BRAPL (125 or 250 g/ha (a.s.)), the “herbicidal action against BRAPL” value was “very good herbicidal action (A damage of at least 95% corresponds to very good herbicidal action)”.
Consider `CCn1c(=O)sc2ccc(C(=O)c3cnn(C(C)(C)C)c3OCc3ccccc3)c(C)c21` [Example I-1y.1131], for which, in the series with PHBPU, the “herbicidal action against PHBPU” value was “very good herbicidal action (A damage of at least 95% corresponds to very good herbicidal action)”. Moreover, in the series with BRAPL (125 or 250 g/ha (a.s.)), the “herbicidal action against BRAPL” value is given as “very good herbicidal action (A damage of at least 95% corresponds to very good herbicidal action)”.
